Numbers after ± are expanded uncertainties.
Experiments:
[1] = Molar enthalpy of transition or fusion; conditions: Crystal; DSC
[2] = Crystal; DTA

CCOC(=O)C1=C[C@]2(CC)CCCN3CCc4c(n1c1ccccc41)[C@@H]32 [vinpocetine]
Molar enthalpy of transition or fusion [1]: 8.93 ± 0.406 kcal/mol | Normal melting temperature [2]: 149.00 ± 1.1 °C

Source: the NIST ThermoML archive (doi:10.1021/acs.jced.8b00663)
